The text below walks through data of ChEMBL document CHEMBL1201862, “PubChem BioAssay data set” (2004).

Test systems include MOLT-4; RPMI-8226; OVCAR-5; SNB-75; SF-268; UACC-62; HT-29; UO-31; 786-0; SK-MEL-28; Malme-3M; BT-549; DU-145; NCI-H522; PC-3; HL-60; RXF 393; EKVX; MDA-MB-435.
Common to all, as to assay: NCI tumour cell line growth inhibition, 48 h

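All cell lines were grown in 96-well plates and treated with compound for 48 hours. Abbreviation: GI50, concentration required for 50% inhibition of growth.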 The source made the active and inactive calls. Rule as the data show it: active = GI50 up to about 1.1 µM and inactive = higher.

`COc1ccc(/C=C(/C(=O)c2ccc(Cl)cc2)N2C=CC=CC2=C(C#N)C#N)cc1OC`: the GI50 in the assay on MOLT-4 is 0.685 µM (active); with RPMI-8226, 2.47 µM (inactive); with OVCAR-5, 16.2 µM (inactive); in the assay on SNB-75, 6.62 µM (inactive); in the assay on SF-268, 3.55 µM (inactive); in the assay with UACC-62, 14.9 µM (inactive). In addition, the GI50 was 5.01 µM (inactive) with HT-29; 1.5 µM (inactive) in the assay with UO-31; 1.94 µM (inactive) in the assay on 786-0; 3.4 µM (inactive) in the assay with SK-MEL-28; 0.914 µM (active) in the assay with Malme-3M; 7.85 µM (inactive) with BT-549. The GI50 in the assay with DU-145 was 13.7 µM (inactive); in the assay on NCI-H522 it was 0.243 µM (active); in the assay with PC-3 it was 2.74 µM (inactive); in the assay with HL-60, 2.37 µM (inactive); with RXF 393 it was 2.03 µM (inactive); in the assay with EKVX, 2.75 µM (inactive). Also, the GI50 in the assay on MDA-MB-435 was 3.89 µM (inactive).
As to `CCCCCCCCCCCCCCCCCCNc1ccn(C2OC(CO)C(O)C2O)c(=O)n1` (stereo not given), the GI50 was 4.58 µM (inactive) in the assay on MOLT-4; 34 µM (inactive) in the assay with RPMI-8226; > 100 µM (inactive) in the assay with OVCAR-5; 29.9 µM (inactive) in the assay on SNB-75; > 100 µM (inactive) in the assay with SF-268; > 100 µM (inactive) in the assay on UACC-62. The GI50 in the assay with HT-29 is > 95.5 µM (inactive); with UO-31, > 100 µM (inactive); with 786-0, > 100 µM (inactive); in the assay on SK-MEL-28 it was > 100 µM (inactive); with Malme-3M, > 100 µM (inactive); with BT-549, > 100 µM (inactive). For the same compound, the GI50 in the assay with DU-145 was > 100 µM (inactive); with NCI-H522, 19.8 µM (inactive); with PC-3, 2.45 µM (inactive); in the assay on HL-60, 2.49 µM (inactive); in the assay with RXF 393, 7.66 µM (inactive); in the assay with EKVX it was > 100 µM (inactive). Moreover, in the assay with MDA-MB-435, the GI50 is > 100 µM (inactive).
With `Nc1ncnc2c1ncn2Cc1cccc(CCl)c1`, the GI50 in the assay with MOLT-4 was 15.2 µM (inactive); in the assay on RPMI-8226, 5.38 µM (inactive); in the assay with OVCAR-5, 14.5 µM (inactive); with SNB-75, 30.1 µM (inactive); in the assay with SF-268, 14.7 µM (inactive); in the assay on UACC-62, 12.8 µM (inactive). Also, the GI50 was 22.8 µM (inactive) with HT-29; 16.5 µM (inactive) in the assay on UO-31; 14.4 µM (inactive) in the assay with 786-0; 19.8 µM (inactive) in the assay on SK-MEL-28; 17.9 µM (inactive) in the assay on Malme-3M; 12.8 µM (inactive) in the assay with BT-549. Moreover, the GI50 was 13.8 µM (inactive) in the assay with DU-145; 15.1 µM (inactive) with NCI-H522; 14.7 µM (inactive) in the assay on PC-3; 15 µM (inactive) with HL-60; 3.88 µM (inactive) with RXF 393; 19.3 µM (inactive) in the assay with EKVX. Moreover, the GI50 with MDA-MB-435 was 19.1 µM (inactive).
`C/C=C(\C)C(O)C(C)C(O)C/C=C(C)/C=C(\C)C/C(C)=C/C/C=C(\C)C(O)C(C)c1ccc(CCC)c(=O)o1` (stereo not given): the GI50 in the assay with MOLT-4 is 20 µM (inactive); in the assay on RPMI-8226, 16.1 µM (inactive); in the assay with OVCAR-5 it was 19.8 µM (inactive); in the assay with SNB-75, 10.8 µM (inactive); with SF-268 it was 15.8 µM (inactive); in the assay with UACC-62 it was 9.86 µM (inactive). Also, the GI50 was 1.69 µM (inactive) with HT-29; 7.82 µM (inactive) with UO-31; 20.8 µM (inactive) in the assay on 786-0; 17.1 µM (inactive) in the assay with SK-MEL-28; 9.25 µM (inactive) in the assay with Malme-3M; 11.8 µM (inactive) in the assay on BT-549. The GI50 in the assay with DU-145 was < 0.01 µM (active); in the assay on NCI-H522, 2 µM (inactive); in the assay on PC-3, 3.5 µM (inactive); in the assay with HL-60, > 100 µM (inactive); with RXF 393, 26.7 µM (inactive); in the assay with EKVX it was 17.5 µM (inactive). The GI50 in the assay on MDA-MB-435 was 9.12 µM (inactive).
Regarding `CC1ON2CCCC2[C@H]1C(=O)N1C2CC3CCC2(CS1(=O)=O)C3(C)C` (stereo not given in full), the GI50 in the assay with MOLT-4, in the assay with RPMI-8226, in the assay with OVCAR-5, in the assay with SNB-75, in the assay with SF-268 and with UACC-62 was > 100 µM (inactive) each time. Further, the GI50 in the assay with HT-29, with UO-31, with 786-0, in the assay with SK-MEL-28, in the assay with Malme-3M and in the assay on BT-549 was > 100 µM (inactive) each time. For the same compound, the GI50 in the assay on DU-145, with NCI-H522, with PC-3, in the assay on HL-60, in the assay with RXF 393 and with EKVX was > 100 µM (inactive) each time. In addition, in the assay with MDA-MB-435, the GI50 is > 100 µM (inactive).
As for `COc1cc2c(cc1OC)C(=O)/C(=C/c1cc(Cl)cc(Cl)c1)C2`, the GI50 was 5.08 µM (inactive) with MOLT-4; 4.94 µM (inactive) with RPMI-8226; > 34.1 µM (inactive) in the assay on OVCAR-5; 1.86 µM (inactive) in the assay with SNB-75; 21.4 µM (inactive) with SF-268; 3.39 µM (inactive) in the assay on UACC-62. Besides, the GI50 was 2.59 µM (inactive) with HT-29; > 100 µM (inactive) in the assay with UO-31; 4.73 µM (inactive) in the assay with 786-0; 61.7 µM (inactive) in the assay on SK-MEL-28; 8.51 µM (inactive) in the assay on Malme-3M; 7.26 µM (inactive) in the assay on BT-549. Besides, the GI50 in the assay with DU-145 was 10.6 µM (inactive); in the assay on NCI-H522, 2.04 µM (inactive); with PC-3, 4.03 µM (inactive); in the assay on HL-60 it was 1.35 µM (inactive); in the assay on RXF 393, 7.41 µM (inactive); in the assay on EKVX it was 19.8 µM (inactive). Further, in the assay with MDA-MB-435, the GI50 is 1.7 µM (inactive).
For the compound `CN(C)S(=O)(=O)Nc1nnc(S(N)(=O)=O)s1`, the GI50 with MOLT-4, with RPMI-8226, in the assay on OVCAR-5, in the assay on SNB-75, in the assay on SF-268 and in the assay with UACC-62 was > 100 µM (inactive) in each case. Besides, the GI50 in the assay on HT-29, with UO-31, in the assay with 786-0, with SK-MEL-28, in the assay on Malme-3M and with BT-549 was > 100 µM (inactive) throughout. In addition, the GI50 in the assay with DU-145, in the assay on NCI-H522, in the assay with PC-3, in the assay with HL-60, in the assay with RXF 393 and with EKVX was > 100 µM (inactive) each time. The GI50 with MDA-MB-435 was > 100 µM (inactive).
As to `COc1ccc2c3c1O[C@H](c1ccc(O)cc1)[C@H]3[N+](C)(C)CC2`, the GI50 in the assay with MOLT-4 was > 100 µM (inactive); with RPMI-8226, 47.4 µM (inactive); with OVCAR-5 it was > 100 µM (inactive); with SNB-75, > 100 µM (inactive); in the assay with SF-268, > 100 µM (inactive); in the assay with UACC-62, > 100 µM (inactive). For the same compound, the GI50 in the assay on HT-29, in the assay with UO-31, with 786-0, in the assay with SK-MEL-28, in the assay on Malme-3M and in the assay with BT-549 was > 100 µM (inactive) throughout. Besides, the GI50 was > 100 µM (inactive) in the assay on DU-145; 42.8 µM (inactive) in the assay on NCI-H522; 75.5 µM (inactive) in the assay on PC-3; 34.3 µM (inactive) with HL-60; > 100 µM (inactive) with RXF 393; > 100 µM (inactive) in the assay on EKVX. Further, the GI50 with MDA-MB-435 is > 100 µM (inactive).
Turning to `CC1=CCCC2C1(C)CCC(C)C2(C)Cc1cc(O)ccc1O` (stereo not given), the GI50 was 2.43 µM (inactive) with MOLT-4; 2.86 µM (inactive) in the assay on RPMI-8226; 21 µM (inactive) in the assay with OVCAR-5; 7.66 µM (inactive) in the assay with SNB-75; 7.26 µM (inactive) in the assay on SF-268; 8.49 µM (inactive) in the assay on UACC-62. In addition, the GI50 in the assay on HT-29 was 18.7 µM (inactive); in the assay with UO-31, 4.84 µM (inactive); in the assay on 786-0, 7.24 µM (inactive); in the assay with SK-MEL-28, 14.1 µM (inactive); in the assay with Malme-3M it was 17.7 µM (inactive); with BT-549, 5.22 µM (inactive). For the same compound, the GI50 with DU-145 is 15 µM (inactive); in the assay on NCI-H522, 3.18 µM (inactive); in the assay on PC-3 it was 5.75 µM (inactive); in the assay with HL-60 it was 1.22 µM (inactive); in the assay with RXF 393 it was 7.6 µM (inactive); with EKVX, 6.27 µM (inactive). Also, the GI50 in the assay with MDA-MB-435 is 7.24 µM (inactive).
With `O=C1NC(N/N=C/c2ccccc2)=N/C1=C\c1ccco1`, the GI50 in the assay with MOLT-4 was 37.1 µM (inactive); in the assay on RPMI-8226, 21.1 µM (inactive); in the assay with OVCAR-5, > 100 µM (inactive); in the assay with SNB-75, 47.8 µM (inactive); with SF-268, 24.5 µM (inactive); in the assay on UACC-62 it was 28.7 µM (inactive). The GI50 was 51.9 µM (inactive) with HT-29; 46.8 µM (inactive) in the assay with UO-31; 22.3 µM (inactive) in the assay with 786-0; 51.8 µM (inactive) in the assay on SK-MEL-28; > 100 µM (inactive) with Malme-3M; 23.7 µM (inactive) with BT-549. Moreover, the GI50 was 32.9 µM (inactive) in the assay with DU-145; 26.1 µM (inactive) with NCI-H522; 33.9 µM (inactive) in the assay with PC-3; > 100 µM (inactive) with HL-60; 25.1 µM (inactive) in the assay on RXF 393; 36.7 µM (inactive) with EKVX. In the assay on MDA-MB-435, the GI50 was 51.9 µM (inactive).
